Source: PubChem BioAssay (NCI)
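Five compound concentrations were applied to cells in 96-well plates for 48 hours; endpoints were derived by simple linear interpolation of the resulting dose-response curve. TGI marks complete inhibition of growth.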

How the values were obtained:
Assay in all cases: NCI-60 cell line screen, 48 h
[1] = system: 786-0 renal
[2] = system: BT-549 breast
[3] = system: COLO 205 colon
[4] = system: HCC-2998 colon
[5] = system: HOP-92 NSCLC
[6] = system: MALME-3M melanoma
[7] = system: MCF7 breast
[8] = system: MDA-MB-231 breast
[9] = system: NCI-H226 lung
[10] = system: NCI-H23 lung
[11] = system: NCI-H522 lung
[12] = system: RPMI-8226 leukemia
[13] = system: RXF 393 renal
[14] = system: SF-268 CNS
[15] = system: SF-539 CNS
[16] = system: SK-MEL-2 melanoma
[17] = system: SK-OV-3 ovarian
[18] = system: SNB-19 CNS
[19] = system: SW-620 colon
[20] = system: UACC-257 melanoma

Row | Compound | TGI [1] [µM] | TGI [2] [µM] | TGI [3] [µM] | TGI [4] [µM] | TGI [5] [µM] | TGI [6] [µM] | TGI [7] [µM] | TGI [8] [µM] | TGI [9] [µM] | TGI [10] [µM] | TGI [11] [µM] | TGI [12] [µM] | TGI [13] [µM] | TGI [14] [µM] | TGI [15] [µM] | TGI [16] [µM] | TGI [17] [µM] | TGI [18] [µM] | TGI [19] [µM] | TGI [20] [µM]
1 | NCC(=O)C(O)C(O)C(O)CO (configuration not stated) | > 100 | > 100 | > 100 | > 100 | > 100 | > 100 | > 100 | > 100 | > 100 | > 100 | > 100 | > 100 | > 100 | > 100 | > 100 | > 100 | > 100 | > 100 | > 100 | > 100
2 | CC(=O)C1(c2ccccc2)CCN(Cn2sc3nc(C)cc(C)c3c2=O)CC1 | 30.6 | > 100 | 33.8 | 72.7 | > 100 | 41.5 | > 100 | > 100 | > 100 | 41.6 | 29 | > 100 | 39.3 | > 100 | 50.9 | > 100 | > 100 | > 100 | > 100 | 
3 | c1ccc(COCC23CCN(Cc4ccccc4)C(CC(OCc4ccccc4)C2)S3)cc1 (configuration not stated) | > 100 | > 100 | > 100 | > 100 | 87.4 | > 100 | 59.9 | > 100 | > 100 | 95.9 | 72.7 | > 100 | > 100 | > 100 | > 100 | > 100 | > 100 | > 100 | > 100 | > 100
4 | Cc1cc(C)c2c(=O)cc(-c3ccc(Cl)cc3)[nH]c2n1 | > 100 | 99.4 | > 55.6 | > 100 | > 100 | > 59.3 | > 100 | > 51.8 | > 100 | > 100 | > 100 | > 100 | > 100 | > 100 | > 100 | > 100 | > 100 | > 100 | > 100 | 83.1
5 | O=c1c2cccnc2[nH]c2ccc3scnc3c12 | > 10 | > 10 | > 10 | > 10 | > 10 | > 10 | > 10 | > 10 | > 10 | > 10 | > 10 | > 10 | 8.71 | > 10 | > 10 | > 10 | > 10 | > 10 | > 10 | > 10
6 | CCOC(=O)/C(C#N)=C(/NS(=O)(=O)c1cc(C)c(Cl)cc1[S-])[n+]1ccc(N(C)C)cc1 | > 100 | > 100 | > 100 | > 100 | 91.7 | > 100 | > 100 | > 100 | > 100 | > 100 | > 100 | > 100 | > 100 | > 100 | > 100 | > 100 | > 100 | > 100 |  | > 100
7 | CN(CCc1ccc(Br)cc1)CCN1CCCCC1 | > 100 | 96.1 | 32.4 | > 100 | 82.8 | 48.7 | 54.4 | > 100 | > 100 | > 100 | 51.7 | > 100 | > 100 | > 100 | 64.8 | 64.3 | > 100 | > 100 | > 100 | > 100
8 | COC(=O)C1([C@@H]2C[C@@H](O)[C@]3(C)CC/C=C(\C)CCC[C@H](C)[C@H](O)[C@@H]2O3)CC1 | > 100 | > 100 | > 100 | > 100 | > 100 | > 100 | > 100 | > 100 | 69.2 | > 100 | > 100 | > 100 | > 100 | > 100 | > 100 | > 100 | > 100 | > 100 | > 100 | > 100
9 | C=C(Cl)C(C)(Cl)CCC(Cl)C(C)(C)Cl (configuration not stated) | > 100 | > 100 | > 100 | > 100 | > 100 | > 100 | > 100 | 83.3 | > 100 | > 100 | 56.3 | 48.7 | > 100 | > 100 | > 100 | > 100 | > 100 | > 100 | > 100 | > 100
10 | COc1cccc2c1C(=O)C(=O)c1c-2oc(=O)c2cc(C)cc(OC)c12 | > 75 | 26 | > 75 | 37.6 | > 75 | > 75 | 72.5 | 70.6 | > 75 | 58.4 | 26.5 | 62.4 | 42.8 | 41.8 | > 75 | 35.1 | > 75 | > 75 | > 75 | 32.4
11 | O=S(=O)(O)c1cc(S(=O)(=O)O)c2c(N=Nc3cccc4ccccc34)c(O)ccc2c1 | > 100 | > 100 | > 100 | > 100 | > 100 | > 100 | > 100 | > 100 | > 100 | > 100 | > 100 | > 100 | > 100 | > 100 | > 100 | > 100 | > 100 | > 100 | > 100 | > 100
12 | CC12CN(CC[N+](C)(C)C)CC1(C)C1CCC2O1 (configuration not stated) | > 100 | > 100 | > 100 | > 100 | > 100 | > 100 | > 100 | > 100 | > 100 | > 100 | > 100 | > 100 | > 100 | > 100 | > 100 | > 100 | > 100 | > 100 | > 100 | > 100
13 | O=C(NNC(=S)Nc1ccccc1)C12CC3CC(CC(C3)C1)C2 | > 100 | 60.8 | > 73.2 | > 95.7 | 95.8 | > 100 | > 100 | > 100 | > 86.6 | > 100 | > 100 | > 100 | > 100 | > 100 | > 100 | > 86.9 | > 100 | > 100 | > 100 | > 100
14 | COc1ccc(C)c2c1N[C@](C)([C@]1(C)Nc3c(OC)ccc(C)c3C1=O)C2=O | > 100 | > 100 | > 100 | > 100 | > 100 | > 100 | > 100 | > 100 | > 100 | > 100 | > 100 | > 100 | > 100 | > 100 | > 100 | > 100 | > 100 | > 100 | > 100 | > 100
15 | CCCCCCCC/C=C\CCCCCCCCNc1ccn(C2OC(COP(=O)(O)OC3CC(n4cc(F)c(=O)[nH]c4=O)OC3CO)C(O)C2O)c(=O)n1 (configuration not stated) | > 100 | > 100 | > 100 | > 100 | > 100 | > 100 | > 100 | > 100 | > 100 | > 30.3 | > 100 | > 100 | > 100 | > 100 | 5.16 | > 100 | > 100 | > 100 | > 100 | > 100
16 | Cc1ccc2c(c1)C(=O)/C(=C1/CCc3ccc(C)cc31)C2 | > 100 | > 100 | > 100 | > 100 | > 100 | > 100 | > 100 | > 100 | > 100 | > 100 | > 100 | > 100 | > 100 | > 100 | > 100 | > 100 | > 100 | > 100 | > 100 | > 100
17 | CCCCCCCCCCCCCCCCOP(=O)(O)OP(=O)(O)OCC1OC(n2ccc(N)nc2=O)CC1O (configuration not stated) | > 100 | > 100 | > 100 | > 100 | > 100 | > 100 | > 100 | > 100 | > 100 | > 100 | > 100 | > 100 | > 100 | > 100 | > 100 | > 100 | > 100 | > 100 | > 100 | > 100
18 | O=C1c2ccccc2C(=O)c2c(OCC3CO3)ccc(OCC3CO3)c21 (configuration not stated) | 6.48 | 15.5 | 9.34 | > 46.3 | 10.7 | 20 | 2.59 | > 34 | 35.9 |  | 13 | 19.8 | 8.31 | 2.29 | 9.02 | 27.8 | 36.2 | 27.2 | 5.68 | 19.4
19 | O=C(NO)c1cccc(OCc2ccc(Br)cc2)c1 | 10.9 | > 100 | 27.4 | 28.4 | 46.7 | 17.6 | > 65 | 86.3 | 27.6 | 17.7 | 16.2 | 24.3 | 25.6 | 38.1 | > 41.4 | 50 | > 55.7 | > 46.4 | > 100 | > 100
20 | N#Cc1c(C#N)c(-c2cccc([N+](=O)[O-])c2)n(-c2ccccc2)c1N | > 100 | > 100 | > 100 | > 100 | > 100 | > 100 | > 100 | > 100 | 86.1 | > 100 | > 100 | > 100 | > 100 | > 100 | > 100 | > 100 | > 100 | > 100 | > 100 | > 100
21 | C[C@]12CC[C@@H]3c4ccc(OC(=O)c5ccccc5)cc4CC[C@H]3[C@@H]1CCC2OC(=O)c1cccc2c(=O)c3ccccc3[nH]c12 (some centres not stated) | 31.7 | 38 | 33.1 | 30 | 34.9 | 46.8 | 30.2 | 40.8 | 39.6 | 48.3 | 45.2 | > 100 | 44.6 | 44.9 | 35.6 | 54.3 | 74.2 | 80.6 | 24.5 | 36.3
22 | O=C(O)c1ccc(Nc2ccnc3cc(Cl)ccc23)cc1O | > 100 | > 100 | > 100 | > 100 | > 100 | > 100 | > 100 | > 100 | > 100 | > 100 | > 100 | > 100 | > 100 | > 100 | 88.7 | > 100 | > 100 | > 100 | > 100 | > 100
23 | COC1Cc2c(C)c(OC(C)=O)c3cccnc3c2O1 (configuration not stated) | 34.3 | 41.5 | > 100 | > 100 | 33.8 | 31.9 | 39.7 | > 100 | > 100 | 36.3 | 13.6 | > 100 | 31.7 | 34 | > 100 | 31.2 | > 100 | > 100 | 27.9 | 29.8
